Measurements from patent US9926282B2, “Phthalazinones and isoquinolinones as rock inhibitors” (BRISTOL-MYERS SQUIBB COMPANY, priority 2013, dated 2018).
Read-outs that look alike come from different tables or passages of the source.

Legend:
[1] = molecular target: ROCK2 (Homo sapiens (Human), UniProt O75116); test: ROCK assay (LABCHIP peptide phosphorylation), ROCK2; type: biochemical; details: 5 μM ATP, 1.5 μM peptide substrate
[2] = molecular target: ROCK1 (Homo sapiens (Human), UniProt Q13464); test: ROCK assay (LABCHIP peptide phosphorylation), ROCK1; type: biochemical
[3] = 5 μM ATP, 1.5 μM peptide substrate, read-out: ROCK1 IC50

Chain of ROCK2 (O75116 whole entry, species assumed): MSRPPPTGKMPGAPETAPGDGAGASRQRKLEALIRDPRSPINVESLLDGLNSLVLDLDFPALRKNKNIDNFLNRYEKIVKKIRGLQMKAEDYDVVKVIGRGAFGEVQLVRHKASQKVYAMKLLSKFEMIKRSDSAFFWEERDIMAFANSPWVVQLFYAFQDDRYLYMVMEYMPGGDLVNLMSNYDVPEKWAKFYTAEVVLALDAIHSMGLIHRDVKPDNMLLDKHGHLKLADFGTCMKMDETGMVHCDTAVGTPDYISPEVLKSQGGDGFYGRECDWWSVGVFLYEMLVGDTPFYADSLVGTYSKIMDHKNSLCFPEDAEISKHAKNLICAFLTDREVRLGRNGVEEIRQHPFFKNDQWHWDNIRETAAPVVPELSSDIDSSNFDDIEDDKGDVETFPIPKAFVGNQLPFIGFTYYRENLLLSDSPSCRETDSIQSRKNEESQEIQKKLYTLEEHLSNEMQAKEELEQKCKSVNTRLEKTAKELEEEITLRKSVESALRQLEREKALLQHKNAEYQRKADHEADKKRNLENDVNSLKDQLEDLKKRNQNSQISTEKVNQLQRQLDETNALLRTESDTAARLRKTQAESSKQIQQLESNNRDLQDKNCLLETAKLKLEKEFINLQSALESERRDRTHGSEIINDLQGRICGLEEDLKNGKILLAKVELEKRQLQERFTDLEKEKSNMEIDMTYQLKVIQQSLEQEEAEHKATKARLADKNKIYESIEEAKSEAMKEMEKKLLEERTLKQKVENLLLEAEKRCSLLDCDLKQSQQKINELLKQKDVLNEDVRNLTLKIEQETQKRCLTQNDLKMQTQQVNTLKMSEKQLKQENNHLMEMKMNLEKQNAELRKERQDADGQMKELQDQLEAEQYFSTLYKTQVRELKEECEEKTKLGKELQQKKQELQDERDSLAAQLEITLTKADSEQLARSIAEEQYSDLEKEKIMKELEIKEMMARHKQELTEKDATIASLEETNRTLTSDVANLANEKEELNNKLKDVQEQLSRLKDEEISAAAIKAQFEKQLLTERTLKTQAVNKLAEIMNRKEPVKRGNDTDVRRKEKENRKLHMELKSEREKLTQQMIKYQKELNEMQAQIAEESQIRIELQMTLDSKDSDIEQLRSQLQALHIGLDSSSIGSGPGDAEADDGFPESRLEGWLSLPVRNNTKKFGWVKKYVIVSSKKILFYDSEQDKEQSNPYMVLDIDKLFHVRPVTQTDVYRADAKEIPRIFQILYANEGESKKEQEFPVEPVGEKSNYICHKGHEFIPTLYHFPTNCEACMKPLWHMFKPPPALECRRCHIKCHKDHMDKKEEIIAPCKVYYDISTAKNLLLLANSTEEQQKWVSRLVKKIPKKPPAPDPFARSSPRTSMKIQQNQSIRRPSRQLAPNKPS
Chain of ROCK1 (Q13464 whole entry, species assumed): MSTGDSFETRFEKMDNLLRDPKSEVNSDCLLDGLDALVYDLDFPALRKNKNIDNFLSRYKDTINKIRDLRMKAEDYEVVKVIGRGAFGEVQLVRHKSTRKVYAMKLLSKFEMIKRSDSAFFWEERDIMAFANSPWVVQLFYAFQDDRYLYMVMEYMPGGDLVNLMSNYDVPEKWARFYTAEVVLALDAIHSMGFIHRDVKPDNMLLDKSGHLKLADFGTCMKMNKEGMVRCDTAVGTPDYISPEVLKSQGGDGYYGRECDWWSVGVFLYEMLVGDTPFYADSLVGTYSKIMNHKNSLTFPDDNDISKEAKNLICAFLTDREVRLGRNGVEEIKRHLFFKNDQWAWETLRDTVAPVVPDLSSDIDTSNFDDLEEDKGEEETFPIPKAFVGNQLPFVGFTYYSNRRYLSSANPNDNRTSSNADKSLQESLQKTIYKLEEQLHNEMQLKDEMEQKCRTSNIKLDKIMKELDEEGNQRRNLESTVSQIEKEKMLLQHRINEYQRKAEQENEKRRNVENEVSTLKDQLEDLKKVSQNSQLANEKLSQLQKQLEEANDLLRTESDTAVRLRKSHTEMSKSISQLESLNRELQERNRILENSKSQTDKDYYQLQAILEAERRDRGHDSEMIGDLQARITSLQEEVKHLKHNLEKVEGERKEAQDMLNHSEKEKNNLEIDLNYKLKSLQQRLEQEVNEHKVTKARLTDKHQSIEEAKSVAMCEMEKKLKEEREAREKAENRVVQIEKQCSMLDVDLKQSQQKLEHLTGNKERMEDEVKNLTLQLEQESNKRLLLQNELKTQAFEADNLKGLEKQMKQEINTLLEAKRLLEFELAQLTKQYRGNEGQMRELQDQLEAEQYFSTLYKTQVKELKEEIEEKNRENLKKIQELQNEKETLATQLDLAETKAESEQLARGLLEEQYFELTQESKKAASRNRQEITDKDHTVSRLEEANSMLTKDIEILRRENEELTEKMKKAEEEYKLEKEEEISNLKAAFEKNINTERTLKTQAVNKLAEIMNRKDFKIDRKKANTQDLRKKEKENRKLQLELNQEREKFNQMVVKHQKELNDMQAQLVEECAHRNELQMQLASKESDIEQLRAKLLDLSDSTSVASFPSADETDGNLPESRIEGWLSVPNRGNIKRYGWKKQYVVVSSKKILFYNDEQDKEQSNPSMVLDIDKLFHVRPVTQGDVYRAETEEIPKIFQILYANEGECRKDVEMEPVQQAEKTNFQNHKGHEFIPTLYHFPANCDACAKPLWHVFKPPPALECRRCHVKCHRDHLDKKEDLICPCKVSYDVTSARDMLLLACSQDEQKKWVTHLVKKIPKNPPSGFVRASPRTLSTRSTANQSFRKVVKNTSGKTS

| Compound | IC50 [1] | IC50 [2, 3] | IC50 [2] |
| --- | --- | --- | --- |
| Cn1ccnc1C(=O)Nc1ccc(-c2n[nH]c(=O)c3ccccc23)cc1 [Example 52, 1-methyl-N-[4-(4-oxo-3,4-dihydrophthalazin-1-yl)phenyl]-1H-imidazole-2-carboxamide] | 101 to 1000 nM | 101 to 1000 nM | – |
| O=C(Nc1ccc(-c2n[nH]c(=O)c3ccccc23)cc1)c1nc2c(s1)CCCC2 [Example 53, N-[4-(4-oxo-3,4-dihydrophthalazin-1-yl)phenyl]-4,5,6,7-tetrahydro-1,3-benzothiazole-2-carboxamide] | 0.1 to 100 nM | 0.1 to 100 nM | – |
| O=C(Nc1ccc(-c2n[nH]c(=O)c3ccccc23)cc1)C1CCN(c2ccc([N+](=O)[O-])cc2)CC1 [Example 54, 1-(4-nitrophenyl)-N-[4-(4-oxo-3,4-dihydrophthalazin-1-yl)phenyl]piperidine-4-carboxamide] | 0.1 to 100 nM | 101 to 1000 nM | – |
| CC(=O)N1CCC(C(=O)Nc2ccc(-c3n[nH]c(=O)c4ccccc34)cc2)CC1 [Example 55, 1-acetyl-N-[4-(4-oxo-3,4-dihydrophthalazin-1-yl)phenyl]piperidine-4-carboxamide] | 1000 to 50000 nM | 1000 to 50000 nM | – |
| O=C(Nc1ccc(-c2n[nH]c(=O)c3ccccc23)cc1)C1CCN(Cc2ccccc2)CC1 [Example 56, 1-benzyl-N-[4-(4-oxo-3,4-dihydrophthalazin-1-yl)phenyl]piperidine-4-carboxamide] | 1000 to 50000 nM | 1000 to 50000 nM | – |
| COCCN1CCC(C(=O)Nc2ccc(-c3n[nH]c(=O)c4ccccc34)cc2)C1 (stereo not shown) [Example 57, 1-(2-methoxyethyl)-N-[4-(4-oxo-3,4-dihydrophthalazin-1-yl)phenyl]pyrrolidine-3-carboxamide] | 1000 to 50000 nM | 1000 to 50000 nM | – |
| CN(C)c1ccc(C(=O)Nc2ccc(-c3n[nH]c(=O)c4ccccc34)cc2)cc1 [Example 58, 4-(dimethylamino)-N-[4-(4-oxo-3,4-dihydrophthalazin-1-yl)phenyl]benzamide] | 0.1 to 100 nM | 0.1 to 100 nM | – |
| O=C(Nc1ccc(-c2n[nH]c(=O)c3ccccc23)cc1)C1CCN(Cc2ccccc2)C1 (stereo not shown) [Example 59, 1-benzyl-N-[4-(4-oxo-3,4-dihydrophthalazin-1-yl)phenyl]pyrrolidine-3-carboxamide] | 1000 to 50000 nM | 1000 to 50000 nM | – |
| O=C(Nc1ccc(-c2n[nH]c(=O)c3ccccc23)cc1)c1ccc(N2CCCC2)cc1 [Example 60] | 0.1 to 100 nM | 0.1 to 100 nM | – |
| O=C(Nc1ccc(-c2n[nH]c(=O)c3ccccc23)cc1)c1ccc(N2CCCCC2)cc1 [Example 61] | 0.1 to 100 nM | 0.1 to 100 nM | – |
| O=C(Nc1ccc(-c2n[nH]c(=O)c3ccccc23)cc1)c1cccc(N2CCCC2)c1 [Example 62, N-[4-(4-oxo-3,4-dihydrophthalazin-1-yl)phenyl]-3-(pyrrolidin-1-yl)benzamide] | 0.1 to 100 nM | 0.1 to 100 nM | – |
| O=C(Nc1ccc(-c2n[nH]c(=O)c3ccccc23)cc1)c1ccc(N2CCOCC2)cc1 [Example 63, 4-(morpholin-4-yl)-N-[4-(4-oxo-3,4-dihydrophthalazin-1-yl)phenyl]benzamide] | 0.1 to 100 nM | 101 to 1000 nM | – |
| CN1CCN(c2ccc(C(=O)Nc3ccc(-c4n[nH]c(=O)c5ccccc45)cc3)cc2)CC1 [Example 64, 4-(4-methylpiperazin-1-yl)-N-[4-(4-oxo-3,4-dihydrophthalazin-1-yl)phenyl]benzamide] | 0.1 to 100 nM | 101 to 1000 nM | – |
| O=C(Nc1ccc(-c2n[nH]c(=O)c3ccccc23)cc1)c1ccccc1 [Example 67, N-[4-(4-oxo-3,4-dihydrophthalazin-1-yl)phenyl]benzamide] | 0.1 to 100 nM | 101 to 1000 nM | – |
| O=C(Oc1ccc(-c2n[nH]c(=O)c3ccccc23)cc1)N1CCC(c2ccccc2)C1 (stereo not shown) [Example 69, 4-(4-Oxo-3,4-dihydrophthalazin-1-yl)phenyl 3-phenylpyrrolidine-1-carboxylate] | 101 to 1000 nM | 1000 to 50000 nM | – |
| COc1ccc2c(c1)CN(C(=O)Oc1ccc(-c3n[nH]c(=O)c4ccccc34)cc1)C2 [Example 70, 4-(4-Oxo-3,4-dihydrophthalazin-1-yl)phenyl 5-methoxyisoindoline-2-carboxylate] | 0.1 to 100 nM | 1000 to 50000 nM | – |
| O=C(Oc1ccc(-c2n[nH]c(=O)c3ccccc23)cc1)N1Cc2ccc(F)cc2C1 [Example 71, 4-(4-Oxo-3,4-dihydrophthalazin-1-yl)phenyl 5-fluoroisoindoline-2-carboxylate] | 0.1 to 100 nM | 1000 to 50000 nM | – |
| CN1CCN(Cc2ccc3c(c2)CN(C(=O)Oc2ccc(-c4n[nH]c(=O)c5ccccc45)cc2)C3)CC1 [Example 72, 4-(4-Oxo-3,4-dihydrophthalazin-1-yl)phenyl 5-((4-methylpiperazin-1-yl)methyl)isoindoline-2-carboxylate] | 0.1 to 100 nM | – | 101 to 1000 nM |
| O=c1[nH]nc(-c2ccc(Nc3ncc(-c4ccccc4)o3)cc2)c2ccccc12 [Example 73, 4-(4-((5-Phenyloxazol-2-yl)amino)phenyl)phthalazin-1 (2H)-one] | 0.1 to 100 nM | 101 to 1000 nM | – |
| O=c1[nH]nc(-c2ccc(Nc3nc(-c4ccccc4)cs3)cc2)c2ccccc12 [Example 74, 4-(4-((4-Phenylthiazol-2-yl)amino)phenyl)phthalazin-1(2H)-one] | 0.1 to 100 nM | 1000 to 50000 nM | – |
| O=C(Nc1ccc(-c2n[nH]c(=O)c3ccccc23)cc1)N1CCc2ccccc21 [Example 76, N-(4-(4-Oxo-3,4-dihydrophthalazin-1-yl)phenyl)indoline-1-carboxamide] | 0.1 to 100 nM | 0.1 to 100 nM | – |
| O=C(Nc1ccc(-c2c[nH]c(=O)c3ccccc23)cc1)N1CCc2ccccc21 [Example 77, N-(4-(1-Oxo-1,2-dihydroisoquinolin-4-yl)phenyl)indoline-1-carboxamide] | 0.1 to 100 nM | 0.1 to 100 nM | – |
| O=C(Cc1ccc(-c2n[nH]c(=O)c3ccccc23)cc1)N[C@@H]1CCc2ccccc21 [Example 81, (R)—N-(2,3-Dihydro-1H-inden-1-yl)-2-(4-(4-oxo-3,4-dihydrophthalazin-1-yl)phenyl)acetamide] | 101 to 1000 nM | 1000 to 50000 nM | – |
| O=C(Cc1ccc(-c2n[nH]c(=O)c3ccccc23)cc1)N[C@H]1CCc2ccccc21 [Example 82, (S)—N-(2,3-Dihydro-1H-inden-1-yl)-2-(4-(4-oxo-3,4-dihydrophthalazin-1-yl)phenyl)acetamide] | 101 to 1000 nM | 1000 to 50000 nM | – |
| O=C(Cc1ccc(-c2n[nH]c(=O)c3ccccc23)cc1)N1CCc2ccc(OCc3ccccc3)cc21 [Example 83, 4-(4-(2-(6-(Benzyloxy)indolin-1-yl)-2-oxoethyl)phenyl)phthalazin-1(2H)-one] | 0.1 to 100 nM | 0.1 to 100 nM | – |

Now from value to molecule, other results behind:

| IC50 [1] | IC50 [2, 3] | Compound | IC50 [2] |
| --- | --- | --- | --- |
| 0.1 to 100 nM | 0.1 to 100 nM | O=C(Nc1ccc(-c2n[nH]c(=O)c3ccccc23)cc1)c1ccc(-n2ccnc2)cc1 [Example 65, 4-(1H-imidazol-1-yl)-N-[4-(4-oxo-3,4-dihydrophthalazin-1-yl)phenyl]benzamide] | – |
| 0.1 to 100 nM | 0.1 to 100 nM | CN(C)c1cccc(C(=O)Nc2ccc(-c3n[nH]c(=O)c4ccccc34)cc2)c1 [Example 66, 3-(dimethylamino)-N-[4-(4-oxo-3,4-dihydrophthalazin-1-yl)phenyl]benzamide] | – |
| 0.1 to 100 nM | 0.1 to 100 nM | O=c1[nH]nc(-c2ccc(Nc3nc4ccccc4o3)cc2)c2ccccc12 [Example 75, 4-(4-(Benzo[d]oxazol-2-ylamino)phenyl)phthalazin-1(2H)-one] | – |
| 0.1 to 100 nM | 101 to 1000 nM | O=c1[nH]nc(-c2ccc(Nc3ncc4ccccc4n3)cc2)c2ccccc12 [Example 78, 4-{4-[(Quinazolin-2-yl)amino]phenyl}-1,2-dihydrophthalazin-1-one] | – |
| 0.1 to 100 nM | 0.1 to 100 nM | COc1ccc2c(c1)N(C(=O)Nc1ccc(-c3c[nH]c(=O)c4ccccc34)cc1)CC2 [Example 80, 6-Methoxy-N-(4-(1-oxo-1,2-dihydroisoquinolin-4-yl)phenyl)indoline-1-carboxamide] | – |
| 0.1 to 100 nM | 0.1 to 100 nM | O=c1[nH]nc(-c2ccc(Nc3nncc4ccccc34)cc2)c2ccccc12 [Example 85, 4-(4-(Phthalazin-1-ylamino)phenyl)phthalazin-1(2H)-one] | – |
| 0.1 to 100 nM | 1000 to 50000 nM | O=c1[nH]nc(-c2ccc(Nc3ncc(-c4ccccc4)s3)cc2)c2ccccc12 [Example 88, 4-(4-((5-Phenylthiazol-2-yl)amino)phenyl)phthalazin-1(2H)-one] | – |
| 0.1 to 100 nM | 101 to 1000 nM | O=C(Nc1ccc(-c2n[nH]c(=O)c3ccccc23)cc1)c1cn2ccccc2n1 [Example 89, N-[4-(4-oxo-3,4-dihydrophthalazin-1-yl)phenyl]imidazo[1,2-a]pyridine-2-carboxamide] | – |
| 0.1 to 100 nM | 101 to 1000 nM | Cn1c(C(=O)Nc2ccc(-c3n[nH]c(=O)c4ccccc34)cc2)cc2ccccc21 [Example 90, 1-methyl-N-[4-(4-oxo-3,4-dihydrophthalazin-1-yl)phenyl]-1H-indole-2-carboxamide] | – |
| 0.1 to 100 nM | 1000 to 50000 nM | O=C(Nc1ccc(-c2n[nH]c(=O)c3ccccc23)cc1)C1CCc2ccccc21 (stereo not shown) [Example 91, N-[4-(4-oxo-3,4-dihydrophthalazin-1-yl)phenyl]-2,3-dihydro-1H-indene-1-carboxamide] | – |
| 0.1 to 100 nM | 101 to 1000 nM | O=C(Nc1ccc(-c2n[nH]c(=O)c3ccccc23)cc1)c1ccc(-n2cncn2)cc1 [Example 92, N-[4-(4-oxo-3,4-dihydrophthalazin-1-yl)phenyl]-4-(1H-1,2,4-triazol-1-yl)benzamide] | – |
| 0.1 to 100 nM | 0.1 to 100 nM | O=C(Nc1ccc(-c2n[nH]c(=O)c3ccccc23)cc1)c1onc2ccccc12 [Example 93, N-[4-(4-oxo-3,4-dihydrophthalazin-1-yl)phenyl]-2,1-benzoxazole-3-carboxamide] | – |
| 0.1 to 100 nM | 0.1 to 100 nM | CN(C)c1ccc2cc(C(=O)Nc3ccc(-c4n[nH]c(=O)c5ccccc45)cc3)[nH]c2c1 [Example 94, 6-(dimethylamino)-N-[4-(4-oxo-3,4-dihydrophthalazin-1-yl)phenyl]-1H-indole-2-carboxamide] | – |
